Source: PMC7044277 (Nature Communications, 2020)
Values joined by “and” are separate entries in the source; they are usually repeats but may differ in a detail not shown here. Equal values may be shown once.

Experiments:
Type in all cases: cell-based
320 non-olfactory GPCRs [1] = biological target: 320 non-olfactory GPCRs (Homo sapiens, UniProt O43193); conditions: receptor MLNR; replicate values, Fig_4g
320 non-olfactory GPCRs [2] = biological target: T1, 320 non-olfactory GPCRs (Homo sapiens, UniProt P55085)
T1 construct: expressed in transfected cells; host or cells: HTLA cells

320 non-olfactory GPCRs [3] = biological target: T2, 320 non-olfactory GPCRs (Homo sapiens, UniProt Q15077); conditions: receptor P2RY6; replicate values, Fig_4g
T2 construct: expressed in transfected cells; host or cells: HTLA cells

320 non-olfactory GPCRs [4] = biological target: T3, 320 non-olfactory GPCRs (Homo sapiens, UniProt Q01718); conditions: receptor MC2R; replicate values, Fig_4g
T3 construct: expressed in transfected cells; host or cells: HTLA cells
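Wherever Fold of Basal is given: compound tested at 1 µM final concentration.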
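Wherever GPCRome agonism screen response is given: fold over basal response of each receptor without drug.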

Sequence of 320 non-olfactory GPCRs (Homo sapiens, UniProt O43193) (O43193 whole entry): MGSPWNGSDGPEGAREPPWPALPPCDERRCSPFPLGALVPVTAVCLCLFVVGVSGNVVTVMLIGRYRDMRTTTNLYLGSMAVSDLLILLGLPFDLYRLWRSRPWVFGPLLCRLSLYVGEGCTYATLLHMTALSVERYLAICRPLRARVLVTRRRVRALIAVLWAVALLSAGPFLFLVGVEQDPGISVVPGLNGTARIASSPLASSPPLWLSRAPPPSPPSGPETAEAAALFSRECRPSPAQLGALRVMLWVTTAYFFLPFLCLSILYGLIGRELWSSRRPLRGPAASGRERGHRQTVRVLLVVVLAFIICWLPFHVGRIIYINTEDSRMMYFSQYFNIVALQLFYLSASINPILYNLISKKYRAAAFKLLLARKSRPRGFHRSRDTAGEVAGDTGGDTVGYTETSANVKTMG
T2 sequence (Q15077 whole entry): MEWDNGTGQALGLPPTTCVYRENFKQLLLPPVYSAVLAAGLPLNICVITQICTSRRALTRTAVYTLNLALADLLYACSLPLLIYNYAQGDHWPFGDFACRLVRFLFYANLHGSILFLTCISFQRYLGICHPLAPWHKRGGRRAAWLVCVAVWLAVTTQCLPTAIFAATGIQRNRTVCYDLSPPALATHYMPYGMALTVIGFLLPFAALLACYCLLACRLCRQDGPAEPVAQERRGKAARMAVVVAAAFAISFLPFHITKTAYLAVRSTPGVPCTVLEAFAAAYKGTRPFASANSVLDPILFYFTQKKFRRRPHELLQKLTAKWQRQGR
T3 sequence (Q01718 whole entry): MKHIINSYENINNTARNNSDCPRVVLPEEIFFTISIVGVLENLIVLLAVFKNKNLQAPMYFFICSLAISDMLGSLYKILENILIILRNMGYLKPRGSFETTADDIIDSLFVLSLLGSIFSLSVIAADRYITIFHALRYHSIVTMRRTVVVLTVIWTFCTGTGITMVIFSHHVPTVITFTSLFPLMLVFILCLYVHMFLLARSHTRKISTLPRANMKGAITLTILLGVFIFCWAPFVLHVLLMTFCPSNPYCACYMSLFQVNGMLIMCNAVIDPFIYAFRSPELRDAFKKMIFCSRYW
T1 sequence (P55085 26-397): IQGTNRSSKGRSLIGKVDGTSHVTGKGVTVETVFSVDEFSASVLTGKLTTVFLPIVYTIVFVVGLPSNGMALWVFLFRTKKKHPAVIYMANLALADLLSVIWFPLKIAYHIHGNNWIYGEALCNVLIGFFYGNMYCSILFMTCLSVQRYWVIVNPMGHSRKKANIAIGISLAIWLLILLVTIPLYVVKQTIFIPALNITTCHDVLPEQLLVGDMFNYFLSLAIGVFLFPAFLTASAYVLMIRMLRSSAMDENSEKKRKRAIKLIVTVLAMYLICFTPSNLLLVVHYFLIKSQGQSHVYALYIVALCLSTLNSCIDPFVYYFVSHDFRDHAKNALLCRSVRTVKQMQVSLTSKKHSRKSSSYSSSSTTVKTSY

With `CCOc1cccc2cc(C(C)NCC3(O)CCCCC3)oc12` (stereo not shown) [O4LE6] as the compound, how does the “GPCRome agonism screen response” value (320 non-olfactory GPCRs [1]) read?
Its value is 1.48 and 1.279 and 0.7077 and 1.039.

What about the “Fold of Basal” value (320 non-olfactory GPCRs [2]) of the same compound?
Its value is 0.6754 and 1.05 and 1.156 and 0.8918.

And the “GPCRome agonism screen response” value (320 non-olfactory GPCRs [3])?
The value was 0.88 and 0.9723 and 0.9546 and 1.27.

And the “GPCRome agonism screen response” value (320 non-olfactory GPCRs [4])?
Its value is 1.011 and 1.168 and 0.7811 and 1.192.
